Reference: publication PMC6222787, “Anti-Inflammatory Activities of Compounds Isolated from the Rhizome of Anemarrhena asphodeloides” (Molecules : A Journal of Synthetic Chemistry and Natural …, 2018)
Several values for one entry are separate records, joined by “and”; a condition that tells them apart may be missing. Identical values can stand only once. Like-named read-outs stand apart in the source and are kept apart here.

Columns and labels:
[1] = test system: scopolamine-induced cognition deficits; parameters: method as in PMID 27444169; details: mice; cited from earlier work
[2] = test system: LPS-induced NO production in N9 microglial cells; test: LPS-induced NO production (Griess assay); assay type: cell-based, mouse; details: for Nitrite: control 4.60, LPS group 31.81 μM; for Nitrite / inhibition at 25 µM / inhibition at 50 µM / % Inhibition of NO Production: mean ± S.E.M.; for inhibition at 25 µM / inhibition at 50 µM: N9, 24 h; for % Inhibition of NO Production: 50 µM
Method: Figure 2 Inhibitory effects of TBIII (A) and t-HL (B) in LPS-stimulated N9 microglial cells. Cells were pretreated with different concentrations of TBIII and t-HL 1 h prior to the addition of LPS (100 ng/mL) and were further incubated for 24 h. NO production was determined by using the Griess reagent. IC50 values and curve fitting were determined using Graphpad Prism (GraphPad, Avenida, CA, USA).
Accumulation of nitrite, a metabolite of NO in the culture media, was measured by Griess assay as previously reported. Briefly, cells were stimulated with 100 ng/mL of LPS for 24 h in the presence of the test compounds (0–50 μM).

in vitro = details: mouse, % Cell Viability
Method: (§6) The N9 microglial cell line was obtained from China Cell Line Bank. The cells were grown at 37 °C in IMDM supplemented with 10% heat-inactivated FBS under a humidified atmosphere of 5% CO2. In this experiment, cells were allowed to acclimate for 24 h before treatments.
(§7) Cell viability was evaluated by the MTT reduction assay [36]. Cells were seeded in 96-well plates at a density of 2 × 10^4 cells/well and allowed to grow for 24 h before treatments. Thereafter, 100 μL medium containing various concentrations (0–50 μM) of compounds were added and incubated for another 24 h. MTT was dissolved in DD water (5 mg/mL) and 10 μL were added to each well. After 4 h, the medium was removed and 100 μL DMSO were filled in each well. The optical density was measured at 490 nm on a Flexstation 3 (Molecular Devices, Silicon Valley, CA, USA).

NF-κB = test: LPS-induced activation of NF-κB (Western blot, nuclear p65); assay type: cell-based, mouse; details: pretreated 1 h, LPS 100 ng/mL
Method: (§1) Figure 6 Effect of TBIII and t-HL on LPS-induced activation of Akt (A,C) and NF-κB (B,D) in N9 cells. Cells were treated with different concentrations of TBIII and t-HL for 1 h prior to stimulation with LPS (100 ng/mL). Nuclear and cytoplasmic proteins were obtained and analyzed by western blot. PAR (10 μM) was used as a positive control. The data shown represent the mean ± S.E.M of three independent experiments. * p < 0.05, ** p < 0.01, *** p < 0.001 versus the LPS-treated group; ^# p < 0.05, ^## p < 0.01, ^### p < 0.001 versus the control group.
(§2) N9 cells were plated into 12-well plates (4 × 10^5 cells/well) and pretreated with different concentrations of TBIII and t-HL for 1 h, then stimulated by 100 ng/mL of LPS for 24 h. Nuclear and cytoplasmic proteins were obtained with nuclear and cytoplasmic protein extraction kit (Beyotime Biotechnology, Shanghai, China) according to the manufacturer′s protocol. Proteins were collected by SDS-PAGE Sample Loading Buffer (Yeasen, Shanghai, China) and heated at 99 °C for 10 min. Proteins in sample loading buffer were separated on 10% sodium dodecyl sulfate (SDS)-polyacrylamide gel electrophoresis (PAGE) and followed by transferring to nitrocellulose membranes (Whatman Protran, Dassel, Germany). […] The immunoreactive bands were quantified using the NIH Image J software (NIH, Bethesda, MD, USA).

IL-6 [3] = test: LPS-induced IL-6 mRNA expression (real-time PCR); assay type: cell-based, mouse; details: pretreated 1 h, LPS 100 ng/mL 4 h, dose-dependent
Method: (§3) Figure 4 Effects of TBIII (A) and t-HL (B) on LPS-induced mRNA expression of pro-inflammatory cytokines in N9 microglial cells. Cells were treated with different concentrations of TBIII and t-HL for 1 h and then stimulated with LPS (100 ng/mL) for 4 h. TNF-α and IL-6 mRNA levels were determined by real-time PCR analysis. […] The data were obtained from three independent experiments and expressed as the means ± […] < 0.001 versus the LPS-treated group; ^### p < 0.001 versus the control group. Total RNA was extracted from cells using Trizol reagent (Invitrogen, Carlsbad, CA, USA). Reverse transcription of RNA was performed with the Reverse Transcription System […] kit (Promega, Madison, WI, USA) according to the manufacturer's protocol. The complementary DNA (cDNA) was subsequently subjected to Real-Time PCR to quantify the transcripts of TNF-α and IL-6 using SYBR® Green Real-time PCR Master Mix (TOYOBO, Osaka, Japan). […] The primers for the mouse housekeeping gene glyceraldehyde-3-phosphate dehydrogenase ([…] was performed according to the following conditions: 94 °C for 3 min, 40 cycles of denaturation at 94 °C for 30 s, annealing at 56 °C for 45 s, extension at 72 °C for 30 s, followed by a final extension at 72 °C for 10 min. The quantified fold changes in messenger RNA (mRNA) in each sample were normalized to GAPDH expression and calculated using the 2exp (-ΔΔCt) method.

TNF-α [4] = test: LPS-induced TNF-α production (ELISA); assay type: cell-based, mouse; details: pretreated 1 h, LPS 100 ng/mL 24 h
Method: (§4) Figure 5 Effects of TBIII (A) and t-HL (B) on LPS-induced production of pro-inflammatory cytokines in N9 microglial cells. Cells were pre-treated with TBIII and t-HL for 1 h and then stimulated with LPS (100 ng/mL) for 24 h. The protein levels of TNF-α and IL-6 determined by ELISA according to manufacturer′s instructions. PAR (10 μM) was used as a positive control. The data were obtained from three independent experiments and expressed as the means ± S.E.M. * p < 0.05, ** p < 0.01, *** p < 0.001 versus the LPS-treated group; ^## p < 0.01, ^### p < 0.001 versus the control group.
(§5) N9 cells were plated into 24-well plates (2 × 10^5 cells/well). After cells became adherent, they were pretreated with different concentrations of TBIII and t-HL for 1 h before stimulation with 100 ng/mL of LPS. The supernatants of cultured medium were collected and the production of TNF-α and IL-6 was measured after incubation for 24 h using an ELISA kit according to manufacturer′s instructions.

Akt = test: LPS-induced activation of Akt (Western blot); assay type: cell-based, mouse; details: pretreated 1 h, LPS 100 ng/mL
Method: as §1, §2

IL-6 [5] = test: LPS-induced IL-6 production (ELISA); assay type: cell-based, mouse; details: pretreated 1 h, LPS 100 ng/mL 24 h
Method: as §4, §5

iNOS = iNOS expression by Western blot in LPS-stimulated N9 cells; assay type: cell-based, mouse; details: pretreated 1 h, LPS 100 ng/mL 24 h, dose-dependent
Method: Figure 3 Effects of TBIII (A) and t-HL (B) on the expression of iNOS induced by LPS in N9 microglial cells. The iNOS protein levels were analyzed by Western blot. Cells were treated with different concentrations of TBIII and t-HL for 1 h and then stimulated with LPS (100 ng/mL) for 24 h. The iNOS signal was normalized to the β-actin signal. Parthenolide (PAR, 10 μM) was used as a positive control. The data were obtained from three independent experiments and expressed as the means ± S.E.M. * p < 0.05, ** p < 0.01, *** p < 0.001 versus the LPS-treated group; ^### p < 0.001 versus the control group.
as §2

TNF-α [6] = test: LPS-induced TNF-α mRNA expression (real-time PCR); assay type: cell-based, mouse; details: pretreated 1 h, LPS 100 ng/mL 4 h, dose-dependent
Method: as §3

N9 microglial cells [7] = test system: N9 microglial cells
Method: as §6, §7

[8] = test system: mouse model of postpartum depression; details: cited from earlier work
N9 microglial cells [9] = test: MTT assay for cell viability
Method: as §6, §7

[10] = MTT assay for cell viability; details: mouse, N9 microglial cells, % Cell Viability, 24 h, MTT, mean ± S.E.M.; for viability at 24 h, 25 µM: 25 μM compound; for viability at 24 h, 50 µM: 50 μM compound
Method: as §6, §7

[11] = test system: various kinds of tumor cells; parameters: method as in PMID 15971131, PMID 28548219, PMID 29393481, PMID 27897231; details: cited from earlier work
neuronal injury = test system: neuronal injury; parameters: method as in PMID 23287539; details: cited from earlier work
[12] = 25 μM compound, LPS 100 ng/mL, 24 h
[13] = 50 μM compound, LPS 100 ng/mL, 24 h
[14] = Mus musculus, 25 μM compound, LPS 100 ng/mL, 24 h, read-out: % Inhibition of NO Production
[15] = Mus musculus, 50 μM compound, LPS 100 ng/mL, 24 h, read-out: % Inhibition of NO Production

In the case of `C[C@@H](CC[C@@]1(O)O[C@H]2C[C@H]3[C@@H]4CC[C@@H]5C[C@@H](O[C@@H]6O[C@H](CO)[C@H](O)[C@H](O)[C@H]6O[C@@H]6O[C@H](CO)[C@@H](O)[C@H](O)[C@H]6O)CC[C@]5(C)[C@H]4CC[C@]3(C)[C@H]2[C@@H]1C)CO[C@@H]1O[C@H](CO)[C@@H](O)[C@H](O)[C@H]1O` [Timosaponin BII], the “effect on scopolamine-induced cognition deficits” value [1] is given as “ameliorate scopolamine-induced cognition deficits”.

Work on `CC(CCC1(O)OC2CC3C4CCC5CC(OC6OC(CO)C(OC7OC(C)C(O)C(O)C7O)C(O)C6OC6OC(C)C(O)C(O)C6O)C(O)CC5(C)C4CCC3(C)C2C1C)COC1OC(CO)C(O)C(O)C1O` (stereo not shown) [Compound 8, Tuberoside G] yielded a Nitrite [2, 12] of 35.05 ± 0.68 µM, a Nitrite [2, 13] of 27.65 ± 0.74 µM and an inhibition at 25 µM ([2]; Mus musculus, read-out: % Inhibition of NO Production, 25 μM compound, LPS 100 ng/mL, 24 h) of -10.8 ± 2.14%. The inhibition at 50 µM ([2]; Mus musculus, read-out: % Inhibition of NO Production, 50 μM compound, LPS 100 ng/mL, 24 h) was 13.2 ± 2.32%, the viability at 24 h, 25 µM (in vitro) was 113 ± 4.14% and the viability at 24 h, 50 µM (in vitro) was 99.3 ± 2.46%.

In the case of `CC1=C(CCC(C)COC2OC(CO)C(O)C(O)C2O)OC2CC3C4CCC5CC(OC6OC(CO)C(O)C(O)C6OC6OC(CO)C(O)C(O)C6O)CCC5(C)C4CCC3(C)C12` (stereo not shown) [Compound 11, Timosaponin BIII], the “NF-κB signaling / p65 subunit into nuclei” value (NF-κB) is reported as “no effect”, the “IL-6 mRNA expression” value (IL-6 [3]) is reported as “significantly suppressed” and the “TNF-α production (protein)” value (TNF-α [4]) is reported as “significantly suppressed”. The “phosphorylation of Akt / PI3K/Akt signaling activation” value (Akt) was “attenuated”, the “IL-6 production (protein)” value (IL-6 [5]) was “significantly suppressed” and the iNOS protein expression (iNOS) was “significantly attenuated”. The “TNF-α mRNA expression” value (TNF-α [6]) was “significantly suppressed”, the Nitrite [2, 12] was 8.55 ± 0.25 µM and the Nitrite [2, 13] was 4.24 ± 0.10 µM. The “% Inhibition of NO Production” value [2, 13] was 86% and 86.67 ± 0.37 %, the viability at 24 h, 25 µM (in vitro) was 120 ± 11.8% and the “cytotoxicity against N9 microglial cells (in words)” value (N9 microglial cells [7]) was “non-cytotoxic”. For the same molecule, the “% Cell Viability” value (N9 microglial cells [7]; mouse, 24 h, 50 µM) was 74.93 ± 3.15 % and the antidepressive activity [8] was “antidepressive activity”.

In the case of `C[C@@H]1O[C@@H](O[C@H]2[C@H](OC(=O)[C@]34CCC(C)(C)C[C@H]3C3=CC[C@@H]5[C@@]6(C)C[C@H](O)[C@H](O[C@@H]7O[C@H](CO)[C@@H](O)[C@H](O)[C@H]7O)C(CO)(CO)[C@@H]6CC[C@@]5(C)[C@]3(C)C[C@H]4O)OC[C@H](O)[C@@H]2O)[C@H](O)[C@H](O)[C@H]1O[C@@H]1OC[C@@H](O)[C@H](O[C@@H]2OC[C@](O)(CO)[C@H]2O)[C@H]1O` [Compound 14, Platycodin D], the “cell viability reduced to” value (N9 microglial cells [9]; at 25 and 50 μM) is reported as ≤ 60%, the viability at 24 h, 25 µM [10] is reported as 40.2 ± 9.18% and the viability at 24 h, 50 µM [10] is reported as 17.9 ± 1.99%. For the same molecule, the “cytotoxicity towards tumor cells” value [11] was “significant cytotoxicity”, the Nitrite [2, 12] was 28.94 ± 0.40 µM and the Nitrite [2, 13] was 4.29 ± 0.59 µM. For the same molecule, the inhibition at 25 µM [2, 14] was 8.65 ± 2.24% and the inhibition at 50 µM [2, 15] was 86.5 ± 2.71%.

With `C=CC(C=Cc1ccc(O)cc1)c1ccc(O)cc1` (stereo not drawn) [Compound 23, trans-Hinokiresinol] the “NF-κB signaling / p65 subunit into nuclei” value (NF-κB) was “significantly prevented”, the “IL-6 mRNA expression” value (IL-6 [3]) was “significantly suppressed” and the “TNF-α production (protein)” value (TNF-α [4]) was “significantly suppressed”. The “effect on neuronal injury” value (neuronal injury) was “protective effect”, the “phosphorylation of Akt / PI3K/Akt signaling activation” value (Akt) was “not affected” and the “IL-6 production (protein)” value (IL-6 [5]) was “significantly suppressed”. The iNOS protein expression (iNOS) was “significantly attenuated”, the “cytotoxicity against N9 microglial cells (in words)” value (N9 microglial cells [9]; MTT) was “non-cytotoxic” and the viability at 24 h, 25 µM [10] was 108 ± 4.39%. The viability at 24 h, 50 µM [10] was 98.3 ± 11.6%, the “TNF-α mRNA expression” value (TNF-α [6]) was “significantly suppressed” and the Nitrite [2, 12] was 14.93 ± 0.41 µM. The Nitrite [2, 13] was 5.18 ± 0.06 µM, the “% Inhibition of NO Production” value [2, 13] was 83.73 ± 0.22 % and the inhibition at 25 µM [2, 14] was > 50%. For the same molecule, the inhibition at 50 µM [2, 15] was 83% and the IC50 ([2]; Mus musculus, N9, pretreated 1 h, LPS 100 ng/mL, 24 h, Griess reagent, read-out: IC50, inhibition of NO production) was 39.1 µM.
